# Reference: publication PMC5681660, “Reduced hepatitis B and D viral entry using clinically applied drugs as novel inhibitors of the bile acid transporter NTCP” (Scientific Reports, 2017)
# Counter-ions that a name gives are not always drawn. Like-named read-outs stand apart in the source and are kept apart here.
# Key:
# human NTCP [1] = target: T1, human NTCP (Homo sapiens, UniProt Q14973); assay: Screening taurocholate uptake assay (96-well, [14C]taurocholate, 10 µM drug)
# T1 sequence (Q14973 1-349): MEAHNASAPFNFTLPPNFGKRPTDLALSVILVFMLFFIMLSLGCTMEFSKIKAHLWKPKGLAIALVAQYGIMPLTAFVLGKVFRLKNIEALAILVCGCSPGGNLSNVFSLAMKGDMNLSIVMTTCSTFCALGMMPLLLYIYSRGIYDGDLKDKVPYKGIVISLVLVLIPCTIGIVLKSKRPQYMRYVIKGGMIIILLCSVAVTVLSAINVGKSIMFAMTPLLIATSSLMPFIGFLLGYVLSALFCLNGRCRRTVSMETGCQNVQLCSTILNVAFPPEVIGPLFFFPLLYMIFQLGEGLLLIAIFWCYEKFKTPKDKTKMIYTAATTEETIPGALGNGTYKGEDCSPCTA
# human NTCP [2] = target: T1, human NTCP; assay: Screening fluorescent competitive Myrcludex B-FITC binding assay (96-well, 10 µM drug)
# [3] = Prestwick library screen, 10 µM drug, B-score of taurocholate uptake
# [4] = combined ranking from functional and binding assay B-scores
# [5] = Prestwick library screen, 10 µM drug, B-score of Myrcludex B-FITC binding
# [6] = combined ranking from functional and binding screening assays
# [7] = screen, 10 µM drug, taurocholate uptake
# [8] = screen, 10 µM drug, Myrcludex B-FITC binding
# [9] = Prestwick library screen, taurocholate uptake, 10 µM drug
# [10] = ranking score beside the functional and binding assay B-scores of the screen
# [11] = Prestwick library screen, Myrcludex B-FITC binding, 10 µM drug
compound,measurement,setting,value
"NCC(CC(=O)O)c1ccc(Cl)cc1 (racemic) [Baclofen (R,S)]",B-score functional assay,human NTCP [1]; [3],2.955
same,Ranking score,human NTCP [1]; [4],1069.07
same,B-score binding assay,human NTCP [2]; [5],0.531
C1CCC(C(CC2CCCCN2)C2CCCCC2)CC1 (centres unmarked) [Perhexiline maleate],Ranking score,human NTCP [1]; [6],400.32
same,B-score functional assay,human NTCP [1]; [7],-0.011
same,B-score binding assay,human NTCP [2]; [8],-0.916
COc1ccc(Cc2nccc3cc(OC)c(OC)cc23)cc1OC [Papaverine hydrochloride],B-score functional assay,human NTCP [1]; [9],-0.09
same,Ranking score,human NTCP [1]; [10],728.955
same,B-score binding assay,human NTCP [2]; [11],0.722
CCCCOC(=O)c1ccc(O)cc1 [Butylparaben],B-score functional assay,human NTCP [1]; [9],5.239
same,Ranking score,human NTCP [1]; [10],668.543
same,B-score binding assay,human NTCP [2]; [11],-0.593
CCN(CCCc1ccccc1)CCCc1ccccc1.O=C(O)CC(O)(CC(=O)O)C(=O)O [Alverine citrate salt],Ranking score,human NTCP [1]; [6],318.591
same,B-score functional assay,human NTCP [1]; [7],-1.552
same,B-score binding assay,human NTCP [2]; [8],-0.052
CO[C@H]1/C=C/O[C@@]2(C)Oc3c(C)c(O)c4c(c3C2=O)C2=NC3(CCN(CC(C)C)CC3)NC2=C(NC(=O)/C(C)=C\C=C\[C@H](C)[C@H](O)[C@@H](C)[C@@H](O)[C@@H](C)[C@H](OC(C)=O)[C@@H]1C)C4=O [Rifabutin],B-score functional assay,human NTCP [1]; [9],1.309
same,Ranking score,human NTCP [1]; [10],731.029
same,B-score binding assay,human NTCP [2]; [11],-0.23
"CN1CCc2c(c3ccccc3n2Cc2ccccc2)C1.O=S(=O)(O)c1cccc2c(S(=O)(=O)O)cccc12 [Mebhydroline 1,5-naphtalenedisulfonate]",B-score functional assay,human NTCP [1]; [3],0.022
same,Ranking score,human NTCP [1]; [4],893.031
same,B-score binding assay,human NTCP [2]; [5],1.889
CC(C)(C)NC[C@H](O)COc1nsnc1N1CCOCC1.O=C(O)/C=C\C(=O)O [Timolol maleate salt],B-score functional assay,human NTCP [1]; [3],1.166
same,Ranking score,human NTCP [1]; [4],1052.08
same,B-score binding assay,human NTCP [2]; [5],0.866
O=C1Cc2cc(CCN3CCN(c4nsc5ccccc45)CC3)c(Cl)cc2N1 [Ziprasidone Hydrochloride],Ranking score,human NTCP [1]; [6],382.094
same,B-score functional assay,human NTCP [1]; [7],-0.279
same,B-score binding assay,human NTCP [2]; [8],-0.675
Cc1ncc(CO)c(CO)c1O [Pyridoxine hydrochloride],B-score functional assay,human NTCP [1]; [3],0.632
same,Ranking score,human NTCP [1]; [4],1004.23
same,B-score binding assay,human NTCP [2]; [5],1.062
C[C@@H]1[C@H](O)[C@@H](C)/C=C/C=C/CC/C=C/C=C/C=C/C=C/C(O[C@H]2O[C@H](C)[C@@H](O)[C@H](N)[C@@H]2O)CC2O[C@](O)(CC(O)C(O)CCC(O)CC(O)CC(O)CC(=O)O[C@H]1C)CC(O)C2C(=O)O (some centres unmarked) [Nystatine],B-score functional assay,human NTCP [1]; [9],-0.141
same,Ranking score,human NTCP [1]; [10],804.798
same,B-score binding assay,human NTCP [2]; [11],3.8
C=C[C@H]1CN2CC[C@H]1C[C@@H]2[C@@H](O)c1ccnc2ccc(OC)cc12.Cl.O [Quinidine hydrochloride monohydrate],Ranking score,human NTCP [1]; [10],834.825
same,B-score binding assay,human NTCP [2]; [11],-0.002
CCCc1cc(C(N)=S)ccn1 [Prothionamide],B-score functional assay,human NTCP [1]; [9],-0.17
same,Ranking score,human NTCP [1]; [10],776.121
same,B-score binding assay,human NTCP [2]; [11],2.241
C=C(C)[C@@H]1[C@H]2OC(=O)[C@@H]1[C@]1(O)C[C@H]3O[C@]34C(=O)O[C@H]2[C@]14C [Picrotoxinin],B-score functional assay,human NTCP [1]; [9],0.075
same,Ranking score,human NTCP [1]; [10],754.999
same,B-score binding assay,human NTCP [2]; [11],0.17
CCN(CC)CCOC(=O)C(c1ccccc1)c1ccccc1 [Adiphenine hydrochloride],Ranking score,human NTCP [1]; [6],440.174
same,B-score functional assay,human NTCP [1]; [7],-0.012
same,B-score binding assay,human NTCP [2]; [8],-0.701
CN(C)CCCSC(=N)N.Cl.Cl [Dimaprit dihydrochloride],B-score functional assay,human NTCP [1]; [3],0.472
same,Ranking score,human NTCP [1]; [4],1022.56
same,B-score binding assay,human NTCP [2]; [5],1.724
N=C(N)NC(=O)c1nc(Cl)c(N)nc1N [Amiloride hydrochloride dihydrate],Ranking score,human NTCP [1]; [6],420.464
same,B-score functional assay,human NTCP [1]; [7],-1.628
same,B-score binding assay,human NTCP [2]; [8],1.12
COc1ccccc1Oc1c(NS(=O)(=O)c2ccc(C(C)(C)C)cc2)nc(-c2ncccn2)nc1OCCO [Bosentan],B-score functional assay,human NTCP [1]; [9],0.07
same,Ranking score,human NTCP [1]; [10],688.78
same,B-score binding assay,human NTCP [2]; [11],0.008
Cc1ncc(C[n+]2csc(CCO)c2C)c(N)n1 [Thiamine hydrochloride],B-score functional assay,human NTCP [1]; [9],1.872
same,Ranking score,human NTCP [1]; [10],830.8
same,B-score binding assay,human NTCP [2]; [11],-0.051
CCC(=O)O[C@@](Cc1ccccc1)(c1ccccc1)[C@@H](C)CN(C)C [Levopropoxyphene napsylate],B-score functional assay,human NTCP [1],0.245
same,Ranking score,human NTCP [1],726.763
same,B-score binding assay,human NTCP [2],0
COc1ccnc(C[S+]([O-])c2nc3ccc(OC(F)F)cc3[nH]2)c1OC (centres unmarked) [Pantoprazole sodium],B-score functional assay,human NTCP [1],0.443
same,Ranking score,human NTCP [1],878.449
same,B-score binding assay,human NTCP [2],0.377
CC(C)C(=O)Nc1ccc([N+](=O)[O-])c(C(F)(F)F)c1 [Flutamide],Ranking score,human NTCP [1]; [6],383.15
same,B-score functional assay,human NTCP [1]; [7],-1.233
same,B-score binding assay,human NTCP [2]; [8],0.039
C[N+]1(C)[C@@H]2CC[C@H]1C[C@@H](OC(=O)C(CO)c1ccccc1)C2 (some centres unmarked) [Methylatropine nitrate],Ranking score,human NTCP [1]; [6],357.004
same,B-score functional assay,human NTCP [1]; [7],-0.076
same,B-score binding assay,human NTCP [2]; [8],-1.066
Cc1ccc(O)c([C@H](CCN(C(C)C)C(C)C)c2ccccc2)c1 [Tolterodine tartrate],B-score functional assay,human NTCP [1]; [9],0.018
same,Ranking score,human NTCP [1]; [10],673.446
same,B-score binding assay,human NTCP [2]; [11],0.032
CC[C@H]1OC(=O)[C@H](C)[C@@H](O[C@H]2C[C@@](C)(OC)[C@@H](O)[C@H](C)O2)[C@H](C)[C@@H](O[C@@H]2O[C@H](C)C[C@H](N(C)C)[C@H]2O)[C@](C)(O)C[C@@H](C)[C@@H]2N[C@@H](COCCOC)O[C@H]([C@H]2C)[C@]1(C)O [Dirithromycin],B-score functional assay,human NTCP [1]; [3],1.532
same,Ranking score,human NTCP [1]; [4],934.441
same,B-score binding assay,human NTCP [2]; [5],0.123
CCN(CC)CCNC(C(=O)OCCC(C)C)c1ccccc1.Cl.Cl (centres unmarked) [Camylofine chlorhydrate],B-score functional assay,human NTCP [1]; [3],1.768
same,Ranking score,human NTCP [1]; [4],947.253
same,B-score binding assay,human NTCP [2]; [5],0.138
CN(CCCCCCCCCCN(C)C(=O)Oc1cccc([N+](C)(C)C)c1)C(=O)Oc1cccc([N+](C)(C)C)c1 [Demecarium bromide],B-score functional assay,human NTCP [1]; [3],0.13
same,Ranking score,human NTCP [1]; [4],853.475
same,B-score binding assay,human NTCP [2]; [5],0.623
Cc1cnc(C(=O)O)c[n+]1[O-] [Acipimox],B-score functional assay,human NTCP [1]; [3],0.91
same,Ranking score,human NTCP [1]; [4],894.262
same,B-score binding assay,human NTCP [2]; [5],0.142
Eburnamonine (-),Ranking score,human NTCP [1]; [6],349.983
same,B-score functional assay,human NTCP [1]; [7],-1.058
same,B-score binding assay,human NTCP [2]; [8],-0.173
O=C(O)CN(CCN(CC(=O)O)CC(=O)O)CCN(CC(=O)O)CC(=O)O [Pentetic acid],Ranking score,human NTCP [1]; [6],406.409
same,B-score functional assay,human NTCP [1]; [7],-0.313
same,B-score binding assay,human NTCP [2]; [8],-0.525
Nc1ccc(C(=O)NCC(=O)O)cc1 [Aminohippuric acid],B-score functional assay,human NTCP [1]; [3],1.44
same,Ranking score,human NTCP [1]; [4],1073.5
same,B-score binding assay,human NTCP [2]; [5],0.866
CCn1cc(C(=O)O)c(=O)c2cnc(N3CCCC3)nc21 [Piromidic acid],B-score functional assay,human NTCP [1]; [3],1.197
same,Ranking score,human NTCP [1]; [4],874.684
same,B-score binding assay,human NTCP [2]; [5],0.041
CN(C)CCOC(C)(c1ccccc1)c1ccccn1 (centres unmarked) [Doxylamine succinate],Ranking score,human NTCP [1]; [6],393.435
same,B-score functional assay,human NTCP [1]; [7],0.231
same,B-score binding assay,human NTCP [2]; [8],-1.318
